Reference: publication PMC8464955, “Prediction of Drug–Drug Interaction Potential of Tegoprazan Using Physiologically Based Pharmacokinetic Modeling and Simulation” (Pharmaceutics, 2021)
Where two headings read alike, the source gives them in different places.

Columns and labels:
[1] = Physicochemical properties (log P, pKa), experimental data; details: for pKa: ampholyte
Source text: (§1) A PBPK model of tegoprazan was built and verified by both the bottom-up approach using in vitro data for maintaining a mechanistic PBPK structure and the top-down approach using clinical PK results for maintaining a descriptive structure (Figure 1). The initial PBPK model of tegoprazan was constructed using physicochemical properties (e.g., molecular weight, log P, pKa), in vitro data (e.g., permeability, intrinsic clearance), and in vivo data (e.g., renal clearance) provided by HK inno.N Corp. (Seoul, Korea). The commercially available software SimCYP simulator v19 (SimCYP Limited, Certara, Sheffield, UK) was used to build the PBPK model and to generate the PK simulations. The PBPK-model-predicted PK profiles and parameters of tegoprazan were compared with the observed PK profiles and parameters from previously conducted clinical studies (Supplementary Table S1). The specific model configuration related to absorption, distribution, and elimination is described below.

[2] = Blood:plasma partition ratio and fraction unbound in plasma, experimental data; assay type: in vitro ADME
[3] = test system: CYP3A4; test: CYP3A4 intrinsic clearance by parameter estimation against clinical data; parameters: species or system human; details: estimated from clinical data, single dose 50 mg, instead of in vitro data
Method: The elimination of the PBPK model consisted of enzyme kinetic and renal clearance (Table 1). Intrinsic clearances (CLint) of tegoprazan by various CYPs were determined by an in vitro study that measured the fraction of CLint inhibited by adding the inhibitors of CYP1A2, CYP2C9, CYP2C19, CYP2D6, and CYP3A to human liver microsomes (in-house data). Based on the in vitro data, an in vitro to in vivo extrapolation (IVIVE) approach was used to estimate the in vivo CLint by each CYP enzyme. Renal clearance as an additional clearance was used from the result of a single-oral-dose study of tegoprazan 100 mg.
If the predicted PK profiles and parameters were not close enough to the observed values, the PBPK model was refined by the parameter estimation approach, in which a parameter was optimized with respect to the clinical data. Parameter estimation was conducted using the genetic algorithm method and weighted-least squares as the objective function. Four parameters were simultaneously estimated in the final step of model refinement using clinical data of single-dose PK study of tegoprazan 50 mg (Table 1). The values of Q and VSAC were estimated to reflect the biphasic distribution of tegoprazan, and the value of Kp scalar was estimated because it affected the overall PK profile, especially distribution and clearance. […]

[4] = PBPK model (SimCYP) prediction of tegoprazan PK; parameters: species or system human; details: estimated from clinical data, single dose 50 mg
Source text: as §1
The advanced dissolution, absorption, and metabolism model was used. The unbound fraction of the drug in enterocytes (fuGut) and the human jejunum effective permeability (Peff,man) were predicted because these values were not routinely measured (Table 1). […]
The elimination of the PBPK model consisted of enzyme kinetic and renal clearance (Table 1). Intrinsic clearances (CLint) of tegoprazan by various CYPs were determined by an in vitro study that measured the fraction of CLint inhibited by adding the inhibitors of CYP1A2, CYP2C9, CYP2C19, CYP2D6, and CYP3A to human liver microsomes (in-house data). […]
The PBPK model of tegoprazan as a single agent was verified using data from clinical studies of single- and multiple-dose administration of different dosages of tegoprazan. To verify the PK predictability of the PBPK model, the model-predicted PK profiles and parameters were compared with the observed PK profiles and parameters measured in clinical studies. […]

[5] = cited from earlier work

pKa ([1]; read-out: pKa 1): 5.2
pKa ([1]; read-out: pKa 2): 12
logP ([1]; octanol/water, read-out: Log P (octanol:water partition coefficient)): 3
blood plasma ratio ([2]; blood and plasma, read-out: B/P (blood:plasma partition ratio)): 0.868
fraction unbound ([2]; plasma, read-out: fu (fraction unbound in plasma)): 0.124
CYP3A4 CLint [3]: 30.34 μL/min/mg of protein
Q (blood flow between central compartment and SAC) [4]: 24.4 L/h
VSAC (volume of the single adjusted compartment) [4]: 0.66 L/kg
Kp ([4]; male, human, oral, read-out: Kp scalar): 0.33
SMILES: Cc1nc2cc(C(=O)N(C)C)cc(O[C@H]3CCOc4cc(F)cc(F)c43)c2[nH]1 [tegoprazan]
apparent clearance [5]: approximately 17.6 L/h
mean half-life [5]: 3.7 to 6.2 h
volume of distribution [5]: ~107.9 L
safety and tolerability ([5]; healthy adults, up to 400 mg single dose and 200 mg multiple doses): safe and tolerable
increase of systemic exposure with dose ([5]; phase 1 clinical study, healthy adults): dose proportional
Cmax when administered with food ([5]; previous studies): decreased
time to reach Cmax when administered with food ([5]; previous studies): delayed
